{"source": "ChEMBL document CHEMBL4251606", "about": "“Design and characterization of α-lipoic acyl shikonin ester twin drugs as tubulin and PDK1 dual inhibitors” (Eur J Med Chem, 2018)", "key": {"[1]": {"biological_target": "[Pyruvate dehydrogenase (acetyl-transferring)] kinase isozyme 1, mitochondrial (Homo sapiens) (UniProt Q15118)", "assay": "Inhibition of PDK1 in human HeLa cells assessed as decrease in PDH-E1 alpha p-ser232 expression up to 8 uM by Western blot analysis", "assay_type": "cell-based"}, "[2]": {"test_system": "HeLa", "assay": "Cell cycle arrest in human HeLa cells assessed as accumulation of cells at G2/M phase at 8 uM after 24 hrs by propidium iodide staining-based FACScan flow cytometric analysis (reference value: 16.82%)", "assay_type": "functional"}, "[3]": {"test_system": "HeLa", "assay": "Induction of apoptosis in human HeLa cells assessed as late apoptotic cells by measuring FL3-H+ cells at 0.7 uM after 24 hrs by propidium iodide staining-based FACScan flow cytometric analysis (reference value: 2.14%)", "assay_type": "functional"}, "[4]": {"test_system": "HeLa", "assay": "Induction of apoptosis in human HeLa cells assessed as late apoptotic cells by measuring FL3-H+ cells at 4 uM after 12 hrs by propidium iodide staining-based flow cytometric analysis (reference value: 3.66%)", "assay_type": "functional"}, "[5]": {"test_system": "HeLa", "assay": "Induction of apoptosis in human HeLa cells assessed as late apoptotic cells by measuring FL3-H+ cells at 2 uM after 12 hrs by propidium iodide staining-based flow cytometric analysis (reference value: 3.66%)", "assay_type": "functional"}, "[6]": {"test_system": "HeLa", "assay": "Induction of apoptosis in human HeLa cells assessed as late apoptotic cells at 6 uM after 24 hrs by Annexin V-APC/propidium iodide staining-based FACScan flow cytometric analysis (reference value: 3.84%)", "assay_type": "functional"}, "[7]": {"test_system": "HeLa", "assay": "Antitumor activity against human HeLa cells xenografted in nude mouse assessed as increase in mouse survival at 2 mg/kg, ip administered once in every 2 days for 15 days relative to control", "assay_type": "functional, organism-based"}, "[8]": {"biological_target": "[Pyruvate dehydrogenase (acetyl-transferring)] kinase isozyme 1, mitochondrial (Homo sapiens) (UniProt Q15118)", "assay": "Inhibition of PDK1 in human HeLa cells assessed as increase in PDH-E1 alpha expression up to 8 uM by Western blot analysis", "assay_type": "cell-based"}, "[9]": {"test_system": "HeLa", "assay": "Induction of apoptosis in human HeLa cells assessed as late apoptotic cells at 6 uM after 12 hrs by Annexin V-APC/propidium iodide staining-based FACScan flow cytometric analysis (reference value: 3.84%)", "assay_type": "functional"}, "[10]": {"biological_target": "[Pyruvate dehydrogenase (acetyl-transferring)] kinase isozyme 1, mitochondrial (Homo sapiens) (UniProt Q15118)", "assay": "Inhibition of PDK1 in human HeLa cells assessed as decrease in PDH-E1 alpha p-ser293 expression up to 8 uM by Western blot analysis", "assay_type": "cell-based"}, "[11]": {"test_system": "HEK-293T", "assay": "Antiproliferative activity against human 293T cells after 24 hrs by MTT assay", "assay_type": "cell-based"}, "[12]": {"test_system": "HeLa", "assay": "Induction of apoptosis in human HeLa cells assessed as increase in Bax expression up to 8 uM after 24 hrs by Western blot analysis", "assay_type": "functional, cell-based"}, "[13]": {"test_system": "HeLa", "assay": "Induction of apoptosis in human HeLa cells assessed as necrotic cells at 6 uM after 12 hrs by Annexin V-APC/propidium iodide staining-based FACScan flow cytometric analysis (reference value: 0.725%)", "assay_type": "functional"}, "[14]": {"test_system": "HeLa", "assay": "Cell cycle arrest in human HeLa cells assessed as accumulation of cells at G2/M phase at 4 uM after 24 hrs by propidium iodide staining-based FACScan flow cytometric analysis (reference value: 16.82%)", "assay_type": "functional"}, "[15]": {"organism": "Homo sapiens", "assay": "Inhibition of microtubule polymerization (unknown origin) at 4 uM after 24 hrs by immunoblot"}, "[16]": {"test_system": "HeLa", "assay": "Cell cycle arrest in human HeLa cells assessed as accumulation of cells at S phase at 4 uM after 24 hrs by propidium iodide staining-based FACScan flow cytometric analysis (reference value: 20.16%)", "assay_type": "functional"}, "[17]": {"test_system": "HeLa", "assay": "Induction of apoptosis in human HeLa cells assessed as early apoptotic cells at 6 uM after 24 hrs by Annexin V-APC/propidium iodide staining-based FACScan flow cytometric analysis (reference value: 2.45%)", "assay_type": "functional"}, "[18]": {"test_system": "Mus musculus", "assay": "Inhibition of PDK1 in mouse xenografted with human HeLa cells assessed as upregulation of PDH-E1 alpha expression in tumor tissue at 1 to 2 mg/kg, ip administered once in every 2 days for 15 days by immunohistochemistry", "assay_type": "functional, organism-based"}, "[19]": {"test_system": "HeLa", "assay": "Antitumor activity against human HeLa cells xenografted in nude mouse assessed as reduction in tumor size at 1 mg/kg, ip administered once in every 2 days for 15 days relative to control", "assay_type": "functional, organism-based"}, "[20]": {"test_system": "HeLa", "assay": "Induction of apoptosis in human HeLa cells assessed as viable cells at 2 uM after 24 hrs by Annexin V-APC/propidium iodide staining-based FACScan flow cytometric analysis (reference value: 85.1%)", "assay_type": "functional", "conditions": "read-out: Activity"}, "[21]": {"test_system": "HeLa", "assay": "Antitumor activity against human HeLa cells xenografted in nude mouse assessed as reduction in tumor volume administered intraperitomeally once in every 2 days for 15 days", "assay_type": "functional"}, "[22]": {"test_system": "HeLa", "assay": "Induction of apoptosis in human HeLa cells assessed as necrotic cells at 6 uM after 24 hrs by Annexin V-APC/propidium iodide staining-based FACScan flow cytometric analysis (reference value: 0.725%)", "assay_type": "functional"}, "[23]": {"biological_target": "[Pyruvate dehydrogenase (acetyl-transferring)] kinase isozyme 1, mitochondrial (Homo sapiens) (UniProt Q15118)", "assay": "Inhibition of PDK1 in human HeLa cells assessed as decrease in PDH-E1 alpha p-ser232 expression at 6 uM by Western blot analysis", "assay_type": "cell-based"}, "[24]": {"test_system": "HeLa", "assay": "Induction of apoptosis in human HeLa cells assessed as late apoptotic cells at 2 uM after 24 hrs by Annexin V-APC/propidium iodide staining-based FACScan flow cytometric analysis (reference value: 7.22%)", "assay_type": "functional"}, "[25]": {"test_system": "HeLa", "assay": "Cell cycle arrest in human HeLa cells assessed as accumulation of cells at S phase at 8 uM after 24 hrs by propidium iodide staining-based FACScan flow cytometric analysis (reference value: 20.16%)", "assay_type": "functional"}, "[26]": {"test_system": "HeLa", "assay": "Induction of apoptosis in human HeLa cells assessed as late apoptotic cells by measuring FL3-H+ cells at 6 uM after 24 hrs by propidium iodide staining-based FACScan flow cytometric analysis (reference value: 2.13%)", "assay_type": "functional"}, "[27]": {"test_system": "L02", "assay": "Antiproliferative activity against human LO2 cells after 24 hrs by MTT assay", "assay_type": "cell-based", "conditions": "L02, 24 h"}, "[28]": {"test_system": "HeLa", "assay": "Induction of mitochondrial membrane potential loss in human HeLa cells assessed as cells with low membrane potential at 2 uM after 12 hrs by JC-1 staining-based flow cytometric analysis (reference value: 9.31%)", "assay_type": "functional"}, "[29]": {"test_system": "HeLa", "assay": "Reduction in glucose consumption in human HeLa cells at 2 to 8 uM", "assay_type": "functional, cell-based"}, "[30]": {"test_system": "HeLa", "assay": "Induction of apoptosis in human HeLa cells assessed as late apoptotic cells by measuring FL3-H+ cells at 6 uM after 12 hrs by propidium iodide staining-based FACScan flow cytometric analysis (reference value: 2.13%)", "assay_type": "functional"}, "[31]": {"test_system": "HeLa", "assay": "Cell cycle arrest in human HeLa cells assessed as accumulation of cells at G1 phase at 4 uM after 24 hrs by propidium iodide staining-based FACScan flow cytometric analysis (reference value: 62.92%)", "assay_type": "functional"}, "[32]": {"biological_target": "[Pyruvate dehydrogenase (acetyl-transferring)] kinase isozyme 1, mitochondrial (Homo sapiens) (UniProt Q15118)", "assay": "Inhibition of PDK1 in human HeLa cells assessed as increase in PDH-E1 alpha expression at 6 uM by Western blot analysis", "assay_type": "cell-based"}, "[33]": {"test_system": "HeLa", "assay": "Induction of apoptosis in human HeLa cells assessed as necrotic cells at 2 uM after 24 hrs by Annexin V-APC/propidium iodide staining-based FACScan flow cytometric analysis (reference value: 1.18%)", "assay_type": "functional"}, "[34]": {"biological_target": "[Pyruvate dehydrogenase (acetyl-transferring)] kinase isozyme 1, mitochondrial (Homo sapiens) (UniProt Q15118)", "assay": "Inhibition of PDK1 in human HeLa cells assessed as decrease in PDH-E1 alpha p-ser300 expression at 6 uM by Western blot analysis", "assay_type": "cell-based"}, "[35]": {"test_system": "HeLa", "assay": "Induction of apoptosis in human HeLa cells assessed as increase in cleaved PARP expression up to 8 uM after 24 hrs by Western blot analysis", "assay_type": "functional, cell-based"}}, "note": "Activity calls are given as the source filed them. No cut-off for these calls is given here."}
{"compound": "CC(C)=CC[C@@H](OC(=O)CCCC[C@@H]1CCSC(c2ccccc2)S1)C1=CC(=O)c2c(O)ccc(O)c2C1=O", "note": "(stereo not given in full)", "values": [{"measurement": "inhibition", "setting": "[1]", "value": "Active"}, {"measurement": "Activity", "setting": "[2]", "value": 52.44, "unit": "%"}, {"measurement": "Activity", "setting": "[3]", "value": 6.4, "unit": "%"}, {"measurement": "Activity", "setting": "[4]", "value": 4.74, "unit": "%"}, {"measurement": "Activity", "setting": "[5]", "value": 3.9, "unit": "%"}, {"measurement": "Activity", "setting": "[6]", "value": 34.8, "unit": "%"}, {"measurement": "Activity", "setting": "[7]", "value": "Active"}, {"measurement": "inhibition", "setting": "[8]", "value": "Active"}, {"measurement": "Activity", "setting": "[9]", "value": 29.9, "unit": "%"}, {"measurement": "inhibition", "setting": "[10]", "value": "inactive"}, {"measurement": "IC50", "setting": "[11]", "value": 88.8, "unit": "µM"}, {"measurement": "Activity", "setting": "[12]", "value": "Active"}, {"measurement": "Activity", "setting": "[13]", "value": 2.31, "unit": "%"}, {"measurement": "Activity", "setting": "[14]", "value": 45.2, "unit": "%"}, {"measurement": "inhibition", "setting": "[15]", "value": "Active"}, {"measurement": "Activity", "setting": "[16]", "value": 29.06, "unit": "%"}, {"measurement": "Activity", "setting": "[17]", "value": 26.1, "unit": "%"}, {"measurement": "Activity", "setting": "[18]", "value": "Active"}, {"measurement": "Activity", "setting": "[19]", "value": "Active"}, {"measurement": "viability at 2 µM", "setting": "[20]", "value": 23.6, "unit": "%"}, {"measurement": "Activity", "setting": "[21]", "value": "Dose-dependent effect"}, {"measurement": "Activity", "setting": "[22]", "value": 10, "unit": "%"}, {"measurement": "inhibition", "setting": "[23]", "value": "Active"}, {"measurement": "Activity", "setting": "[24]", "value": 48.9, "unit": "%"}, {"measurement": "Activity", "setting": "[25]", "value": 32.14, "unit": "%"}, {"measurement": "Activity", "setting": "[26]", "value": 43.5, "unit": "%"}, {"measurement": "IC50", "setting": "[27]", "value": 116, "unit": "µM"}, {"measurement": "Activity", "setting": "[28]", "value": 53, "unit": "%"}, {"measurement": "Activity", "setting": "[29]", "value": "Active"}, {"measurement": "Activity", "setting": "[30]", "value": 10, "unit": "%"}, {"measurement": "Activity", "setting": "[31]", "value": 25.74, "unit": "%"}, {"measurement": "inhibition", "setting": "[32]", "value": "Active"}, {"measurement": "Activity", "setting": "[33]", "value": 11.9, "unit": "%"}, {"measurement": "inhibition", "setting": "[34]", "value": "Active"}, {"measurement": "Activity", "setting": "[35]", "value": "Active"}]}
